{"source": "ChEMBL document CHEMBL1154386", "about": "“Synthesis, characterization and in vitro evaluation of new oxorhenium- and oxotechnetium-CCK4 derivatives as molecular imaging agents for CCK2-receptor targeting” (Eur J Med Chem, 2010)", "target": "T1, Gastrin/cholecystokinin type B receptor (Homo sapiens) (UniProt P32239)", "T1 sequence (whole entry)": "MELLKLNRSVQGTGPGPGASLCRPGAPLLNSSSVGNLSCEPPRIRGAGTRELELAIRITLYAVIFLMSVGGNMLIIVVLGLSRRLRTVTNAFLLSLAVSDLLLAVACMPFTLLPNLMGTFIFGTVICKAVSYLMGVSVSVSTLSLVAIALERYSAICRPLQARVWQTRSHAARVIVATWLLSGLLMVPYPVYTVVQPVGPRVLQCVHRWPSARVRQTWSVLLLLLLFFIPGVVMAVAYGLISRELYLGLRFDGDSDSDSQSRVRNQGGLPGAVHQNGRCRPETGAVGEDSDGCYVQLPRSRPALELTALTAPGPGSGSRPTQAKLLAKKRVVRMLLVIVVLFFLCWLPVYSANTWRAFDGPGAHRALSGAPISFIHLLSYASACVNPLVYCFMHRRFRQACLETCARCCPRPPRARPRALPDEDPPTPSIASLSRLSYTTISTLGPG", "test": "Agonist activity at human CCK2 receptor expressed in COS7 cells assessed as stimulation of [3H]inositol phosphate formation", "assay_type": "functional, cell-based", "conditions": "COS-7", "note": "Starred links: 1 amine or outer side, 2 acyl side, 3 side chain; linkers in the order of their positions; H or OH if unused. Non-standard residues stand in square brackets, D forms with d. Residues, ends and D or L forms follow the SMILES beside them. *: point of attachment. Acetyl(2-STrt) = O=C(CSC(c1ccccc1)(c1ccccc1)c1ccccc1)*; X1 = Oc1ccc(NC(=S)[*:2])cc1N[*:1]; Nle = CCCC[C@H](N)C(=O)O; Ahx = NCCCCCC(=O)O; βAla = NCCC(=O)O", "data": [{"smiles": "CCCC[C@H](NC(=O)[C@H](Cc1c[nH]c2ccccc12)NC(=S)Nc1ccc(O)c(NC(=O)CNC(=O)CSC(c2ccccc2)(c2ccccc2)c2ccccc2)c1)C(=O)N[C@@H](CC(=O)O)C(=O)N[C@@H](Cc1ccccc1)C(=O)O", "note": "({Acetyl(2-STrt)}-G[X1]W[Nle]DF-OH)", "values": [{"measurement": "ED50", "value": 84.5, "unit": "nM"}]}, {"smiles": "CCCC[C@H](NC(=O)[C@H](Cc1c[nH]c2ccccc12)NC(=O)CCCCCNC(=O)CCCCCNC(=S)Nc1ccc(O)c(NC(=O)CNC(=O)CSC(c2ccccc2)(c2ccccc2)c2ccccc2)c1)C(=O)N[C@@H](CC(=O)O)C(=O)N[C@@H](Cc1ccccc1)C(N)=O", "note": "({Acetyl(2-STrt)}-G[X1][Ahx][Ahx]W[Nle]DF-NH2)", "values": [{"measurement": "ED50", "value": 5.01, "unit": "nM"}]}, {"smiles": "CCCC[C@H](NC(=O)[C@H](Cc1c[nH]c2ccccc12)NC(=O)CCNC(=O)CCNC(=S)Nc1ccc(O)c(NC(=O)CNC(=O)CSC(c2ccccc2)(c2ccccc2)c2ccccc2)c1)C(=O)N[C@@H](CC(=O)O)C(=O)N[C@@H](Cc1ccccc1)C(N)=O", "note": "({Acetyl(2-STrt)}-G[X1][βAla][βAla]W[Nle]DF-NH2)", "values": [{"measurement": "ED50", "value": 3.1, "unit": "nM"}]}]}
